Results reported in paper PMC8538057, “Direct Delivery of ANA-TA9, a Peptide Capable of Aβ Hydrolysis, to the Brain by Intranasal Administration” (Pharmaceutics, 2021).
Like-named read-outs stand apart in the source and are kept apart here. Ends that are not written are not given here.

Columns and labels:
[1] = In vitro stability in the whole blood; format: in vitro ADME, rat
Method: After the anesthetization of rats with an i.p. application of the anesthetic mixture, the cerebrospinal fluid (CSF) was collected by cisternal puncture, followed by the collection of whole blood from the polyethylene cannula inserted into the right femoral artery. The blood was heparinized and centrifuged at 15,000 rpm for 10 min at 4 °C, and the supernatant was collected as plasma.
ANA-TA9 was dissolved in PBS at a concentration of 0.1 mg/mL or 1 mg/mL. Immediately before the incubation, 5 μL or 10 μL of the ANA-TA9 solution was added to 45 μL or 90 μL of CSF or plasma, respectively. Similarly, 10 μL of the ANA-TA9 solution was added to 90 μL of whole blood. At predetermined times after the incubation at 37 °C, the samples were cooled by placing them on ice. Methanol (1 mL) was added to the plasma and whole blood for deproteinization. The mixtures were then vortexed and centrifuged at 15,000 rpm for 5 min at 4 °C. The supernatant was transferred to tubes and evaporated to dryness. The residue was reconstituted with 100 μL of the mobile phase of LC/MS mentioned below. The concentrations of ANA-TA9 in the plasma and whole blood were measured by LC/MS. The ANA-TA9 concentrations were measured in the CSF samples by LC/MS without any treatments.
Chromatographic separation was performed using a C18 analytical column (TSKgel ODS 100V, 3 μm, 2.0 mm × 100 mm; TOSOH, Tokyo, Japan). The mobile phase was acetonitrile/0.1% acetic acid (10/90), and the flow rate was 0.2 mL/min. ANA-TA9 eluting from the column was detected with mass spectrometry under the positive mode. Nitrogen gas was used for nebulization at a flow rate of 1.5 L/min. Other conditions (temperature and voltage) were set as the default. The calibration curves of ANA-TA9 in the plasma and the brain were determined.

[2] = In vivo brain distribution study after i.n. and i.p. administration to mice; parameters: species or system Male ddY mice; conditions: mouse; for Tmax: plasma
Method: For i.n. administration, ANA-TA9 was dissolved in PBS at a concentration of 100 mg/mL. Since the profile of the concentration in the plasma after i.p. administration was similar with that after i.n. administration, i.p. administration served as the control for i.n. administration. The nasal solution was diluted to 10 mg/mL for i.p. administration. Male ddY mice weighing 25 g were purchased from Japan SLC. The animals were maintained under conventional housing conditions. After anesthetization by the inhalation of isoflurane (2%), ANA-TA9 solution (5 μL each) was administered to both nostrils of the mice. The ANA-TA9 solution (100 μL) was administered peritoneally. After making an incision in the abdomen at 5, 15, 30, 45, 60, and 90 min after administration, blood was collected from the postcaval vein. Soon after the blood sampling, the heparinized ice-cold saline was flushed by perfusion from the left ventricle to remove the blood from the cerebral blood vessel. The whole brain was removed; washed with ice-cold saline; and divided into three sections: olfactory bulb, frontal brain, and occipital brain. The tissue concentrations of ANA-TA9 were measured with LC/MS. The plasma and brain concentrations of ANA-TA9 were determined by LC/MS, LC-20A, and LCMS-2020 (SHIMADZU, Kyoto, Japan). Briefly, 100 μL of the plasma were mixed with 1000 μL of methanol. […] To the dissected brain tissue, 100 μL of ice-cold purified water were added, and the mixture was homogenized under ice-cold conditions. To the homogenate, 4000 μL of ice-cold methanol were added. […] The residues were reconstituted with 100 μL of the mobile phase of the chromatography. In the preliminary study, it was confirmed that the effect of rapid degradation of ANA-TA9 on the assay could be excluded by the treatment on the blood and brain tissues mentioned above. Chromatographic separation was performed using a C18 analytical column (TSKgel ODS 100V, 3 μm, 2.0 mm × 100 mm; TOSOH, Tokyo, Japan). The mobile phase was acetonitrile/0.1% acetic acid (10/90), and the flow rate was 0.2 mL/min. ANA-TA9 eluting from the column was detected with mass spectrometry under the positive mode. Nitrogen gas was used for nebulization at a flow rate of 1.5 L/min. Other conditions (temperature and voltage) were set as the default. The calibration curves of ANA-TA9 in the plasma and the brain were determined. […] For the calculation of the direct transport percentage (DTP), the equation by Fukuda M. et al. was slightly modified. The modified equation is as follows:(1) %DTP=(AUCbrain)IN−(AUCbrain)X/(AUCbrain)IN×100 (2) (AUCbrain)X=(AUCbrain)IP/(AUCplasma)IP×(AUCplasma)IN in the above equation, AUCbrain,i.p. and AUCplasma,i.p. are used in place of AUCbrain,i.v. and AUCplasma,i.v. in the original equation by Fukuda M. et al.

initial concentration in the whole blood ([1]; rat whole blood (heparinized), 10 μL ANA-TA9 solution added to 90 μL, 37 °C, time 0, LC/MS, three experiments): 80 µg/mL
concentration of ANA-TA9 in the whole blood 5 min after the start of the incubation ([1]; rat whole blood, 10 μL ANA-TA9 solution added to 90 μL, 37 °C, 5 min, LC/MS, three experiments): 20000 ng/mL
initial concentration in the whole blood, % of the expected value ([1]; rat whole blood, time 0, LC/MS): 80%
tissue level at time at 5 min ([2]; male, ddY, in vivo, inhaled or intranasal, 1 mg): 712 ± 54 ng/g
Tmax ([2]; male, ddY, inhaled or intranasal, 1 mg, i.n., read-out: time of peak plasma concentration, i.n. (converted)): 5 min
Tmax ([2]; male, ddY, ip, 1 mg, i.p., read-out: time of peak plasma concentration, i.p. (converted)): 5 min
time of peak concentration in the frontal brain, i.n. ([2]; i.n.): 30 min
time of peak concentration in the occipital brain, i.n. ([2]; i.n.): 30 min
time of peak concentration in the olfactory bulb, i.n. ([2]; i.n.): 5 min
DTP (direct transport percentage), olfactory bulb ([2]; i.n. vs i.p., from the AUC up to 90 min after administration, mean ± SE of four or five animals): 96.3 ± 0.9%
time of peak concentration in the olfactory bulb, i.p. ([2]; i.p.): 15 min
apparent half-life in the olfactory bulb after i.n. administration ([2]; in vivo): 15 min
time after i.n. administration at which ANA-TA9 could be detected in the olfactory bulb ([2]; in vivo): 60 min
concentration in the olfactory bulb more than 45 min after i.p. application ([2]; in vivo, ip): below the limit of detection
peak plasma concentration, i.p. relative to i.n. (times higher) ([2]; in vivo, ip): approximately 11 times
Sequence: SKGQAYRMI [ANA-TA9]
